Assay results: PMC7904636 (International journal of pharmaceutics, 2021)

Experiments:
[1] = tested on: A549 cells; details: toxic at this concentration or higher, ref Zhu et al., 2020; cited from earlier work
[2] = Solubility in aqueous medium; type: physicochemical; details: precipitation observed when DMSO solution was diluted with HBSS

## CC(C)(C)c1cc(C(C)(C)C)c(NC(=O)c2c[nH]c3ccccc3c2=O)cc1O [ivacaftor, Ivacaftor]
[1]
  Concentration toxic to A549 cells: ≥ 8000 ng/mL
[2]
  Solubility in aqueous medium: very low solubility
